This is an account of results in ChEMBL document CHEMBL5465560, “Selectivity Literature for EUbOPEN Chemogenomic Library” (2024).

Assay [1] addresses Serine/threonine-protein kinase MRCK beta (Homo sapiens) (UniProt Q9Y5S2). The assay can be described thus: Selectivity interaction (Kinase panel (Z-LYTE Assay)) EUB0001632a CDC42BPB. The conditions noted are these: at 10 µM.
The target of assay [2] is Ribosomal protein S6 kinase beta-1 (Homo sapiens, UniProt P23443). The assay can be described thus: Selectivity interaction (Ambit KINOMEscan and KiNATiv profiling in Jurkat cells) EUB0000090b RPS6KB1. Type of assay: cell-based. The conditions noted are these: at 1 µM.
Ribosomal protein S6 kinase beta-1, sequence (P23443 whole entry, looked up): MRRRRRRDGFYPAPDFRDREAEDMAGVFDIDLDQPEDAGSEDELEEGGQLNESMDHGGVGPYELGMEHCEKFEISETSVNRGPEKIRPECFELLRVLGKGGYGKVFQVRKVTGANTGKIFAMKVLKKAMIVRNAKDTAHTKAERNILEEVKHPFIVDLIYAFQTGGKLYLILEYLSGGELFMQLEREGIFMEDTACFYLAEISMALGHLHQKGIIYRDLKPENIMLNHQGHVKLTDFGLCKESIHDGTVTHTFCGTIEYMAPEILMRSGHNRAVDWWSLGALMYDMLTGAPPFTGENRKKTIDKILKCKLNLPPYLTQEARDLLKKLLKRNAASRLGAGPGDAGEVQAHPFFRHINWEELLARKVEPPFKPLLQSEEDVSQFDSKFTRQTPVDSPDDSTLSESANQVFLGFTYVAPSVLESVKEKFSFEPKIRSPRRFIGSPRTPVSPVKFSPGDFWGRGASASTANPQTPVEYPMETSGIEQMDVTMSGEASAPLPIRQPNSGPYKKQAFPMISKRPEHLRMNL
The target of a further assay is Histamine H1 receptor (Homo sapiens, UniProt P35367). In words: Selectivity interaction (Panel of non-epigenetic targets (kinases, GPCRs, ion channels, and transporters, Eurofins) ) EUB0000271b HRH1. The conditions noted are these: at 1 µM.
Histamine H1 receptor, sequence (P35367 whole entry): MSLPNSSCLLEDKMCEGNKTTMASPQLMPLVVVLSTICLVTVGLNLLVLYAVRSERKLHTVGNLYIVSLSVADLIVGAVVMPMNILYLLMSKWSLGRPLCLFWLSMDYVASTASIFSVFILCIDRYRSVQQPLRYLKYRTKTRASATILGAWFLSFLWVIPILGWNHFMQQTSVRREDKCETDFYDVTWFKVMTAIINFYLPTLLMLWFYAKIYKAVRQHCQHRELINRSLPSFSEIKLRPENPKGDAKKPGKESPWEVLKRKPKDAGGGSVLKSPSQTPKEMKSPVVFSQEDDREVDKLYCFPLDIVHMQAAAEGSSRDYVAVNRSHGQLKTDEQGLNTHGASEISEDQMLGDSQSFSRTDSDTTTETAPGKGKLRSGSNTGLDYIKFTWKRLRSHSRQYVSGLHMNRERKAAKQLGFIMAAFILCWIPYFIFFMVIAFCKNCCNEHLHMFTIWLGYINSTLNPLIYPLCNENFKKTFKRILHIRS
For assay [3], the target named is Mitogen-activated protein kinase 3 (Homo sapiens, UniProt P27361). The assay can be described thus: Selectivity interaction (KinomeScan (DiscoverX)) EUB0000229b MAPK3. The conditions noted are these: at 10 µM.
Mitogen-activated protein kinase 3, sequence (P27361 whole entry): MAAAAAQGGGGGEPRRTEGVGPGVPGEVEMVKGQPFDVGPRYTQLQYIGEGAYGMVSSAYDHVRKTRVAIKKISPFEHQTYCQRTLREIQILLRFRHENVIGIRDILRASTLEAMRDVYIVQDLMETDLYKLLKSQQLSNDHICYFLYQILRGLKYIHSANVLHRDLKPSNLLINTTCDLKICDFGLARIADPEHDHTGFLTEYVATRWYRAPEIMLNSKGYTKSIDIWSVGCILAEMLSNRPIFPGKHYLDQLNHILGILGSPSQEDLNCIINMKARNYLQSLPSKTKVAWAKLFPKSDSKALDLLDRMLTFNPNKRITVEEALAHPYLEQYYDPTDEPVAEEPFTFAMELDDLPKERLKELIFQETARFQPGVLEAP
For the next assay, the target named is Aurora kinase B (Homo sapiens, UniProt Q96GD4). In words: Selectivity interaction (Enzymatic assay) EUB0001199aCl AURKB.
Aurora kinase B, sequence (Q96GD4 whole entry): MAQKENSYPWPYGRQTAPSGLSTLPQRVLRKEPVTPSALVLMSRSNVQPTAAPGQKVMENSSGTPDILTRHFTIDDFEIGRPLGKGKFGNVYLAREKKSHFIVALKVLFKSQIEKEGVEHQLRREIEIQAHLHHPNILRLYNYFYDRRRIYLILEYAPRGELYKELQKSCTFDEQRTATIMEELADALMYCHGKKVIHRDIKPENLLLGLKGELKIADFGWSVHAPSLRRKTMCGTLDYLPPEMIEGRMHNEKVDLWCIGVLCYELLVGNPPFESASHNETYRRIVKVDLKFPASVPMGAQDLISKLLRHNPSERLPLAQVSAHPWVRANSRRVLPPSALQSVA
Assay [4] has as its target Mitogen-activated protein kinase 10 (Homo sapiens, UniProt P53779). The assay can be described thus: Selectivity interaction (Millipore kinase profiler) EUB0000124b MAPK10. Particulars: at 10 µM.
The target of assay [5] is T1, Ephrin type-B receptor 4 (Homo sapiens) (UniProt P54760).
T1 sequence (whole entry): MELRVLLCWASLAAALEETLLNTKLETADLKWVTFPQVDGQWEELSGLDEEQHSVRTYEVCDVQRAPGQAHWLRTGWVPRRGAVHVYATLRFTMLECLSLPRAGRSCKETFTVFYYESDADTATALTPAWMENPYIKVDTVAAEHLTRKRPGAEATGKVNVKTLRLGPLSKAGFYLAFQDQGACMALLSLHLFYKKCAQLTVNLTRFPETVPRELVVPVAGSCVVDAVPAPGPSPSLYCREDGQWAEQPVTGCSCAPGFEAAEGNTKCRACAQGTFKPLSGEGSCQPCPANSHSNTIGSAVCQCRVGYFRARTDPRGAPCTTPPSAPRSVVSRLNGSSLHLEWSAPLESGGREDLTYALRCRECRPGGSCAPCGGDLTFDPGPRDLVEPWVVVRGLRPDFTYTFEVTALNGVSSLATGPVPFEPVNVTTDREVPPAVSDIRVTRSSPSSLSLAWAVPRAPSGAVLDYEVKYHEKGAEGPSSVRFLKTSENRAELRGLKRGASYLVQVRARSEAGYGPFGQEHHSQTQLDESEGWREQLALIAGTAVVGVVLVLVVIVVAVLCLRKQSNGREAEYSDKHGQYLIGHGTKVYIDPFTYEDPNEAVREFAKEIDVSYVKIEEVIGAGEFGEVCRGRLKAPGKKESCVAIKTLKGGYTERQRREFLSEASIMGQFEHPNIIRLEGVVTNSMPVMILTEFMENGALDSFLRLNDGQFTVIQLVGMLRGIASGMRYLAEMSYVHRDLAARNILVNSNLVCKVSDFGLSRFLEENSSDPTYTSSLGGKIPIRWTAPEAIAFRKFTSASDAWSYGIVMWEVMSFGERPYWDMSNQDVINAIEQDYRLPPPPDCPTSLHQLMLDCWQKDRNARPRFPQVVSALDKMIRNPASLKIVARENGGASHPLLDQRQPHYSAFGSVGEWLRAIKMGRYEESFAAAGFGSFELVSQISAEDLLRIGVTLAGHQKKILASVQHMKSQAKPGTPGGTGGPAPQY
In words: Selectivity interaction (KinomeScan (DiscoverX)) EUB0001049a EPHB4. The conditions noted are these: at 1 µM.

Assay [6] addresses T2, Serine/threonine-protein kinase DCLK1 (Homo sapiens) (UniProt O15075).
T2 sequence (whole entry): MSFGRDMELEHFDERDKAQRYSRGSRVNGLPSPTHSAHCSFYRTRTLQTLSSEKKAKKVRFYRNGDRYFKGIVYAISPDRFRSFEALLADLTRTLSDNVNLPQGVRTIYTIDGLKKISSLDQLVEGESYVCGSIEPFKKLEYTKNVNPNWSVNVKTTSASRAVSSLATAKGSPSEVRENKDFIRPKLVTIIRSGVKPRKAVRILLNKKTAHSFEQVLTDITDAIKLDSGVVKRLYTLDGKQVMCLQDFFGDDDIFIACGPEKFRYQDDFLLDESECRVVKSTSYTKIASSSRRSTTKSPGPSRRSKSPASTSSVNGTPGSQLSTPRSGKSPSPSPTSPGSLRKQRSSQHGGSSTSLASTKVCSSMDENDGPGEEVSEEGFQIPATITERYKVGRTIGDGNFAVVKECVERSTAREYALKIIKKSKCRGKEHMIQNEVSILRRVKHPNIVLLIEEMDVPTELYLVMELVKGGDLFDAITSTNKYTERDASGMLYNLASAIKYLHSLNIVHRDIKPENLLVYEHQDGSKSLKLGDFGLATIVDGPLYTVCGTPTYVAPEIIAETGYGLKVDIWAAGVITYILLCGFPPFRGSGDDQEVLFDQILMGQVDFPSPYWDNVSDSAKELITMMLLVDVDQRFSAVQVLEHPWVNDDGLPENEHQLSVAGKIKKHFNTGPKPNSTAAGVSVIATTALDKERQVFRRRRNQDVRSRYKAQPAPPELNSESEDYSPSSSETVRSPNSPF
In words: Selectivity interaction (KinomeScan (DiscoverX)) EUB0000045b DCLK1.

The target of assay [7] is T3, Mitogen-activated protein kinase kinase kinase 3 (Homo sapiens) (UniProt Q99759).
T3 sequence (whole entry): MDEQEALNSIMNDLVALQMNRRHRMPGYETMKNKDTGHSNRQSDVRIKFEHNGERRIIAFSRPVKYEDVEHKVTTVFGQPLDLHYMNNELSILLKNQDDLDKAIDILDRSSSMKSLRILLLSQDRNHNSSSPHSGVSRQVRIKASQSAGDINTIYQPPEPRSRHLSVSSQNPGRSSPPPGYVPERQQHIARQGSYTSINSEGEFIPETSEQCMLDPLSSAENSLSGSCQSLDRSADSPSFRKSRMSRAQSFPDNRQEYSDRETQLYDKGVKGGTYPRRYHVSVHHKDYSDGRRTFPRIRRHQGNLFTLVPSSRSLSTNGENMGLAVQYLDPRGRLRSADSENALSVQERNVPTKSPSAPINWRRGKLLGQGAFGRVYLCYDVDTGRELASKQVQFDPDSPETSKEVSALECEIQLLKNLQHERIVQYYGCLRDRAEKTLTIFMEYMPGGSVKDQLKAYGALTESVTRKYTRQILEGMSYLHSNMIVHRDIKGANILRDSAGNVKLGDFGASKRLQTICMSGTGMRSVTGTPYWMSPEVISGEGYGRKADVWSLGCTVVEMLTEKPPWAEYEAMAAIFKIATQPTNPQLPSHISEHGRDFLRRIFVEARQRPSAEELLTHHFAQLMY
The assay can be described thus: Selectivity interaction (KinomeScan (DiscoverX)) EUB0000045b MAP3K3.

For assay [8], the target named is Ephrin type-A receptor 2 (Homo sapiens) (UniProt P29317). In words: Selectivity interaction (KinomeScan (DiscoverX)) EUB0000618a EPHA2. Particulars: at 10 µM.
Ephrin type-A receptor 2 (Homo sapiens), sequence (P29317 whole entry): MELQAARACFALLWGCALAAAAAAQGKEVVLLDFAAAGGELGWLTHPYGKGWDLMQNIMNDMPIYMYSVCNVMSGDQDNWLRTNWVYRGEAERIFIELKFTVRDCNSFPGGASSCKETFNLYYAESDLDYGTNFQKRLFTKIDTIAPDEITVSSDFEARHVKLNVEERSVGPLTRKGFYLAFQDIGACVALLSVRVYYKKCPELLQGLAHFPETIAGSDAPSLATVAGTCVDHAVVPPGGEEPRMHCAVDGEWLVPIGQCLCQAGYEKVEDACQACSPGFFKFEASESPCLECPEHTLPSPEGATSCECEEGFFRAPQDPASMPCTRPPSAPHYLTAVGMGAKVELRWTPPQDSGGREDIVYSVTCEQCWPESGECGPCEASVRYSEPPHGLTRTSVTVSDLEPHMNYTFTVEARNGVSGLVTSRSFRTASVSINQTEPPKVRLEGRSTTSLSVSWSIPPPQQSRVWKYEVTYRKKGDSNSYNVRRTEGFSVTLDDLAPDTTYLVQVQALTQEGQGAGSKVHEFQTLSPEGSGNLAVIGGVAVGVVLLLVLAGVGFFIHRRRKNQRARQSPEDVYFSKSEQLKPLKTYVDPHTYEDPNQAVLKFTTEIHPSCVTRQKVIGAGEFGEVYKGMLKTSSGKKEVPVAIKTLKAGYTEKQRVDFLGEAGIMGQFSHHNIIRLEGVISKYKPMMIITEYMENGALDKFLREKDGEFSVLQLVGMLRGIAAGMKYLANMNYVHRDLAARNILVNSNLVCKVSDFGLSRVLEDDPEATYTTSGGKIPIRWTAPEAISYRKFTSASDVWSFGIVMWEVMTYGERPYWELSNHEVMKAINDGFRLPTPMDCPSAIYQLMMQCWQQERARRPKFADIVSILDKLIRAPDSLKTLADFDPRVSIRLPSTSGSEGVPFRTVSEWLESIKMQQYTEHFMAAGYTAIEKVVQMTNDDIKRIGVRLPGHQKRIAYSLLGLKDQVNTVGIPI

By IC50 is commonly meant the concentration at which inhibition is half-maximal. The low end stands for inhibition by little substance, the high end for a need for much substance.

Serine/threonine-protein kinase MRCK beta (Homo sapiens), sequence (Q9Y5S2 whole entry): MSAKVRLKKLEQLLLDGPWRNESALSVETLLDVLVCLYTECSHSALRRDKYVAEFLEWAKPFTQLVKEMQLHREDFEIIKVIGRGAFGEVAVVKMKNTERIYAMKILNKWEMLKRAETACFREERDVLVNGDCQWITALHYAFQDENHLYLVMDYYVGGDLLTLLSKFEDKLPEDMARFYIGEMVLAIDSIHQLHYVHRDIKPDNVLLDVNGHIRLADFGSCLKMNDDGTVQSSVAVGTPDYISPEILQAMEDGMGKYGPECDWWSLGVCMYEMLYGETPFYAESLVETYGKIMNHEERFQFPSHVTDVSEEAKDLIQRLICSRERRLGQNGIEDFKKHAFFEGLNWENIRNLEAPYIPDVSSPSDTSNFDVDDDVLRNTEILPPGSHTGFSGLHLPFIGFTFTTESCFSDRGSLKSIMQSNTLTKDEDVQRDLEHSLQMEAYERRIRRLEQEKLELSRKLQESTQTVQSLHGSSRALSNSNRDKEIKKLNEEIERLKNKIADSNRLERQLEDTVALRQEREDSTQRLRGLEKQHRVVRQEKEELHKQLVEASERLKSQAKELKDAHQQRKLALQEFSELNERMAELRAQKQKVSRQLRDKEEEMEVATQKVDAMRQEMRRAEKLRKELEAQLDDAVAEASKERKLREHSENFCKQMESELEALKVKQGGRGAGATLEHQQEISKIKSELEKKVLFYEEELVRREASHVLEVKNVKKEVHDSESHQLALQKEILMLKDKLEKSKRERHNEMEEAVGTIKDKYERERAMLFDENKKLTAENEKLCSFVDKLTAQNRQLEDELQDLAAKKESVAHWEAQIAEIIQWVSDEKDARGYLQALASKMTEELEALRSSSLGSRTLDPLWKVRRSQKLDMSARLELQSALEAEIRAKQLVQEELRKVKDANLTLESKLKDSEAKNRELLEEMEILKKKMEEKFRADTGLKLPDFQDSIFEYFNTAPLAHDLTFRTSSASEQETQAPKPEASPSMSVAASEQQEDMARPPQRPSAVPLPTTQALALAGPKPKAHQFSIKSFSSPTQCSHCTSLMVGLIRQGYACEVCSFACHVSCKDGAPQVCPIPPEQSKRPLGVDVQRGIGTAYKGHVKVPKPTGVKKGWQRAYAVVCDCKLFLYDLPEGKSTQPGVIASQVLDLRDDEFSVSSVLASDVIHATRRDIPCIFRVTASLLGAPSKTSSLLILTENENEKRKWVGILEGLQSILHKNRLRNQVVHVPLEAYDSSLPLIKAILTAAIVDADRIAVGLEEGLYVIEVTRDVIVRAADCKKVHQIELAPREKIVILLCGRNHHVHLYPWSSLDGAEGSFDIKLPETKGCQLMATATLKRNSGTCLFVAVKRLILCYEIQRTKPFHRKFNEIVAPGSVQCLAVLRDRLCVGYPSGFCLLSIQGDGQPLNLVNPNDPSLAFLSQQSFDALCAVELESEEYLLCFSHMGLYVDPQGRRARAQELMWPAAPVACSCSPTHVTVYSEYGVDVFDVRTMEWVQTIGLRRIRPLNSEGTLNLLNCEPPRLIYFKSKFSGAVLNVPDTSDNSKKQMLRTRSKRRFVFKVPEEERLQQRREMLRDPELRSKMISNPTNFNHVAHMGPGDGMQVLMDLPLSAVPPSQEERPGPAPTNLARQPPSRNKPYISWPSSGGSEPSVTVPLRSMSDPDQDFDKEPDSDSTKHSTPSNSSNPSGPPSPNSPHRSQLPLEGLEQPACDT
Mitogen-activated protein kinase 10, sequence (P53779 whole entry): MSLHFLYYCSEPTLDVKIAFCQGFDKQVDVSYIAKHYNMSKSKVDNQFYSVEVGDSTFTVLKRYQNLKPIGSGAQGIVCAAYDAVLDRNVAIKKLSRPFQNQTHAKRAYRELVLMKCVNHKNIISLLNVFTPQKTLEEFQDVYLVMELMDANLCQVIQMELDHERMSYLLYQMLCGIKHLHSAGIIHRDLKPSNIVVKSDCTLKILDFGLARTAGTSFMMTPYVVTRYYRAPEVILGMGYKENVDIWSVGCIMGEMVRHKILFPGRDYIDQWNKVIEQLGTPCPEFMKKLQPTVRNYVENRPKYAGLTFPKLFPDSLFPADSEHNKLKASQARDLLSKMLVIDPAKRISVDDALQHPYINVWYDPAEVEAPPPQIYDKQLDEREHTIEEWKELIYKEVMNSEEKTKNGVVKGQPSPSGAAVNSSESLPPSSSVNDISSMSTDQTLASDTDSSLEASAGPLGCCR

In assay [1], `Cn1cc(-n2cnc3c(NCc4nc5cc(Cl)c(Cl)cc5[nH]4)nc(N4CCOCC4)nc32)cn1` had a % of control of 3.7%. Turning to `CN(C)C/C=C/C(=O)Nc1ccc(C(=O)N2CCCC(Nc3ncc(Cl)c(-c4c[nH]c5ccccc45)n3)C2)cc1` (configuration not stated), the % of control in assay [2] came out at 83%. `Cc1cc(C)cc([C@@H]2c3cc(C)ccc3NC(=O)CN2C(=O)c2ccc(Br)s2)c1` displayed a % of inhibition on Histamine H1 receptor of 0%.

For the compound `COc1cc(N(C)c2ccnc3ccc(C(F)(F)F)cc23)cc(OC)c1OC`, the % binding in assay [3] was found to be 100%. Turning to `CN1Cc2nccc(-c3cn(C)nc3-c3ccc(F)cc3)c2C1=O`, inhibition against Aurora kinase B was half-maximal at 10.2 µM (IC50).

Turning to `CC(=O)Nc1cccc(-n2c(=O)n(C3CC3)c(=O)c3c(Nc4ccc(I)cc4F)n(C)c(=O)c(C)c32)c1`, the % of control in [4] was 76%. On to `COc1cc(Nc2nc(C)cc(-c3cnn4nc(OC)ccc34)n2)cc(C(F)(F)F)c1`, for which the % of control in assay [5] worked out at 94%. Regarding `C=CC(=O)Nc1cc(-n2c(=O)ccc3cnc4ccc(-c5ccc(NS(C)(=O)=O)cc5)cc4c32)ccc1C`, the % of control in assay [6] (at 1 µM) turned out to be 100%; in assay [6] (at 10 µM) it was 84%; in assay [7] (at 1 µM) it was 100%; in assay [7] (at 10 µM), 79%. In the case of `O[C@H]1CC[C@H](Nc2ncc3nc(Nc4c(F)cc(F)cc4F)n([C@H]4CCOC4)c3n2)CC1`, the % of control in [8] was 99%.
